Results taken from patent publication US11440923B2, “Substituted macrocyclic indole derivatives” (Bayer Aktiengesellschaft, priority 2017, dated 2022).
Counter-ions that a name gives are not always drawn. Like-named read-outs stand apart in the source and are kept apart here.

Experiments:
Type in all cases: cell-based
SUDHL5 cells [1] = test: Induction of caspase-3/7 activity in SUDHL5 cells (Assay 4)
Description: (§1) Induction of Caspase-3/7 Activity Upon Treatment of Cells with Selected Compounds
(§2) The BH3-domain of MCL-1 sequesters pro-apoptotic proteins, thereby inhibiting apoptosis. In contrast, MCL-1 inhibitors are expected to antagonize this effect leading to an increase in apoptosis, which can be determined by measuring the activity of caspase-3/7.
(§3) The activity of caspase-3/7 was determined in DLBCL (Diffuse large B-cell lymphoma) cell lines (SUDHL5 and SUDHL10) upon treatment with different compounds, using the Caspase-Glo® 3/7 reagent from Promega (G8092).
(§4) As a control, medium without cells was also added to the plate. Cells were incubated in a humidified incubator at 37° C. overnight.
(§5) Rim wells were excluded. The cells were incubated for 3 h hours in a humidified incubator at 37° C. After this incubation, 30 μL of Caspase-Glo® 3/7 reagent (Promega G8092) was added to each well using the Multidrop Combi Reagent Dispenser, followed by 1 h incubation at 37° C. Finally, luminescence was read at 0.1 ms, with a gain of 3000 using the PHERAstar FS microplate reader (BMG Labtech).
(§6) For the evaluation of the results, the background measured with “medium-only” was subtracted from all other values. Then, the values were normalized to DMSO-only treated cells (every value was divided by the mean of the DMSO control).

SUDHL10 cells [2] = test: Induction of caspase-3/7 activity in SUDHL10 cells (Assay 4)
Description: as §1, §2, §3, §4, §5, §6

SUDHL10 cells [3] = test: Induction of cytotoxicity in SUDHL10 cells (Assay 6); settings: 5 h, CellTiter-Glo; read-out: Cytotox SUDHL10 IC50 (median)
Description: (§7) Assay 6 Induction of Cytotoxicity Upon Treatment of Cells with Selected Compounds
(§8) In principle, compounds that induce apoptosis will concomitantly induce cell cytotoxicity. Therefore, cytotoxicity assays were run in parallel in SUDHL5 and SUDHL10 cells.
(§9) As a control, medium without cells was also added to the plate. Cells were incubated in a humidified incubator at 37° C. overnight. […] Rim wells were excluded. The cells were incubated for 5 h hours in a humidified incubator at 37° C. After this incubation, 30 μL of CellTiter-Glo® Luminescent Cell Viability reagent (Promega, G7573) was added to each well using the Multidrop Combi Reagent Dispenser, followed by 15 min incubation on a shaker at room temperature. Finally, luminescence was read at 0.1 ms, with a gain of 3000 using the PHERAstar FS microplate reader (BMG Labtech).

AMO-1 cells = test: Antiproliferation assay AMO-1 (Assay 7)
Description: (§10) Assessment of the Anti-Proliferative Effect of Compounds in Different Cell Lines
(§11) The impact of compounds on the proliferation of different cell lines was assessed using the CellTiter-Glo® Luminescent Cell Viability reagent from Promega (G7573).
(§12) In parallel, cells were plated in a reference (day 0) plate for time zero determination. Cells were incubated in a humidified incubator at 37° C. overnight.
(§13) Rim wells were excluded. The cells were incubated for 72 h hours in a humidified incubator at 37° C. The day 0 plate was measured by adding 30 μL/well of CTG solution (CellTiter-Glo® Luminescent Cell Viability reagent, Promega G7573) to time zero wells in the reference plate followed by a 10 minutes incubation and luminescence reading at 0.1 ms. using the PHERAstar FS microplate reader (BMG Labtech).
(§14) After 72 h incubation, the treated plates were measured in the same way as the day 0 plate mentioned above. The Bella DRC Master Sheet was used to calculate IC50s, with CI=day 0 values and C0=DMSO control values.

SUDHL5 cells [4] = test: Induction of cytotoxicity in SUDHL5 cells (Assay 6); settings: 5 h, CellTiter-Glo; read-out: Cytotox SUDHL5 IC50 (median)
Description: as §7, §8, §9

SUDHL5 cells [5] = test: Antiproliferation assay SUDHL5 (Assay 7)
Description: as §10, §11, §12, §13, §14

HMC-1-8 cells = test: Antiproliferation assay HMC-1-8 (Assay 7)
Description: as §10, §11, §12, §13, §14

[6] = caspase-3/7 induction, 3 h; read-out: Caspase SUDHL5 EC50 (median)
[7] = caspase-3/7 induction, 3 h; read-out: Caspase SUDHL10 EC50 (median)
[8] = 72 h, CellTiter-Glo; read-out: Antiproli AMO-1 IC50 median
[9] = 72 h, CellTiter-Glo; read-out: Antiproli SUDHL5 IC50 (median)
[10] = 72 h, CellTiter-Glo; read-out: Antiproli HMC-1-8 IC50 median

EC50 (SUDHL5 cells [1]; [6]) [nM]	EC50 (SUDHL10 cells [2]; [7]) [nM]	IC50 (SUDHL5 cells [5]; [9]) [nM]	Compound	IC50 (SUDHL10 cells [3]) [nM]	IC50 (AMO-1 cells; [8]) [nM]	IC50 (SUDHL5 cells [4]) [nM]	IC50 (HMC-1-8 cells; [10]) [nM]	EC50 (SUDHL5 cells [1]; read-out: Caspase SUDHL5 EC50 (median); caspase-3/7 induction, 3 h) [nM]	EC50 (SUDHL10 cells [2]; read-out: Caspase SUDHL10 EC50 (median); caspase-3/7 induction, 3 h) [nM]	IC50 (AMO-1 cells; read-out: Antiproli AMO-1 IC50 median; 72 h, CellTiter-Glo) [nM]	IC50 (SUDHL5 cells [5]; read-out: Antiproli SUDHL5 IC50 (median); 72 h, CellTiter-Glo) [nM]	IC50 (HMC-1-8 cells; read-out: Antiproli HMC-1-8 IC50 median; 72 h, CellTiter-Glo) [nM]
210	230	260	CCc1c2c(nn1C)C(CCN1CCOCC1)N(C)CCCCn1c(C(=O)O)c(CCCOc3cccc4ccccc34)c3ccc(Cl)c-2c31 (racemic) [Example 100, (rac)-4-chloro-3-ethyl-2,14-dimethyl-(15-rac)-[2-(morpholin-4-yl)ethyl]-7-{3-[(naphthalen-1-yl)oxy]propyl}-10,11,12,13,14,15-hexahydro-2H-pyrazolo[3′,4′:8,9][1,6]diazacycloundecino[10,11,1-hi]indole-8-carboxylic]	320	224	340	3560					
2700	4500	4200	CCc1c2c(nn1C)C(CCN(C)C)OCCCCn1c(C(=O)O)c(CCCOc3cccc4cc(F)ccc34)c3ccc(Cl)c-2c31 (single isomer, unassigned) [Example 82, 4-chloro-15-[2-(dimethylamino)ethyl]-3-ethyl-7-{3-[(6-fluoronaphthalen-1-yl)oxy]propyl}-2-methyl-2,10,11,12,13,15-hexahydropyrazolo[4′,3′:9,10][1,6]oxazacycloundecino[8,7,6-hi]indole-8-carboxylic Acid]	3100	7560	2600	> 33000					
950	1600	910	CCc1c2c(nn1C)C(CCN(C)C)OCCCCn1c(C(=O)O)c(CCCOc3cccc4cc(F)ccc34)c3ccc(Cl)c-2c31 (single isomer, unassigned) [Example 85, 4-chloro-15-[2-(dimethylamino)ethyl]-3-ethyl-7-{3-[(6-fluoronaphthalen-1-yl)oxy]propyl}-2-methyl-2,10,11,12,13,15-hexahydropyrazolo[4′,3′:9,10][1,6]oxazacycloundecino[8,7,6-hi]indole-8-carboxylic Acid]	2000	5170	870	> 33000					
20	23	20	CCc1c2c(nn1C)C(CCN1CCOCC1)N(C)CCCCn1c(C(=O)O)c(CCCOc3cccc4cc(F)ccc34)c3ccc(Cl)c-2c31 (racemic) [Example 93, (rac)-4-chloro-3-ethyl-7-{3-[(6-fluoro-1-naphthyl)oxy]propyl}-2,14-dimethyl-(15-rac)-[2-(morpholin-4-yl)ethyl]-10,11,12,13,14,15-hexahydro-2H-pyrazolo[3′,4′:8,9][1,6]diazacycloundecino[10,11,1-hi]indole-8-carboxylic Acid]		58.9	27	558					

The next lines start with the compound.

Compound	EC50 (SUDHL5 cells [1]; [6]) [nM]	EC50 (SUDHL10 cells [2]; [7]) [nM]	IC50 (SUDHL5 cells [5]; [9]) [nM]	IC50 (SUDHL10 cells [3]) [nM]	IC50 (AMO-1 cells; [8]) [nM]	IC50 (SUDHL5 cells [4]) [nM]	IC50 (HMC-1-8 cells; [10]) [nM]	EC50 (SUDHL5 cells [1]; read-out: Caspase SUDHL5 EC50 (median); caspase-3/7 induction, 3 h) [nM]	EC50 (SUDHL10 cells [2]; read-out: Caspase SUDHL10 EC50 (median); caspase-3/7 induction, 3 h) [nM]	IC50 (AMO-1 cells; read-out: Antiproli AMO-1 IC50 median; 72 h, CellTiter-Glo) [nM]	IC50 (SUDHL5 cells [5]; read-out: Antiproli SUDHL5 IC50 (median); 72 h, CellTiter-Glo) [nM]	IC50 (HMC-1-8 cells; read-out: Antiproli HMC-1-8 IC50 median; 72 h, CellTiter-Glo) [nM]
CCc1c2c(nn1C)C(CCC(C)(C)O)OCCCCn1c(C(=O)O)c(CCCOc3cccc4cc(F)ccc34)c3ccc(Cl)c-2c31 (single isomer, unassigned; enantiomer 2) [Example 76, (−)-4-chloro-3-ethyl-7-{3-[(6-fluoronaphthalen-1-yl)oxy]propyl}-15-(3-hydroxy-3-methylbutyl)-2-methyl-2,10,11,12,13,15-hexahydropyrazolo[4′,3′:9,10][1,6]oxazacycloundecino[8,7,6-hi]indole-8-carboxylic Acid—N-ethylethanamine Salt (Enantiomer 2)]	3300	5800	4600	5200	3870	3600	13000					
CCc1c2c(nn1C)C(CCN(C)C)OCCCCn1c(C(=O)O)c(CCCOc3cccc4cc(F)ccc34)c3ccc(Cl)c-2c31 (single isomer, unassigned) [Example 83, 4-chloro-15-[2-(dimethylamino)ethyl]-3-ethyl-7-{3-[(6-fluoronaphthalen-1-yl)oxy]propyl}-2-methyl-2,10,11,12,13,15-hexahydropyrazolo[4′,3′:9,10][1,6]oxazacycloundecino[8,7,6-hi]indole-8-carboxylic Acid]	230	340	420	330	650	270	8740					
CCc1c2c(nn1C)C(CCN1CC(F)(F)C1)OCCCCn1c(C(=O)O)c(CCCOc3cccc4cc(F)ccc34)c3ccc(Cl)c-2c31 (single isomer, unassigned; (-)) [Example 79, (−)-4-chloro-15-[2-(3,3-difluoroazetidin-1-yl)ethyl]-3-ethyl-7-{3-[(6-fluoronaphthalen-1-yl)oxy]propyl}-2-methyl-2,10,11,12,13,15-hexahydropyrazolo[4′,3′:9,10][1,6]oxazacycloundecino[8,7,6-hi]indole-8-carboxylic Acid—N-ethylethanamine Salt]	3700	5400	2200	3800	3700	4100	23500					
CCc1c2c(nn1C)C(CCN1CCOCC1)N(C)CCCCn1c(C(=O)O)c(CCCOc3cccc4cc(F)ccc34)c3ccc(Cl)c-2c31 (stereo not drawn) [Example 98, 4-chloro-3-ethyl-7-{3-[(6-fluoronaphthalen-1-yl)oxy]propyl}-2,14-dimethyl-15-[2-(morpholin-4-yl)ethyl]-10,11,12,13,14,15-hexahydro-2H-pyrazolo[3′,4′:8,9][1,6]diazacycloundecino[10,11,1-hi]indole-8-carboxylic Acid—N-ethylethanamine Salt]	1000	1500	1200		860	1400	11500					
CCc1c2c(nn1C)C(CCN1CCOCC1)OCC(F)(F)CCn1c(C(=O)O)c(CCCOc3cccc4cc(F)ccc34)c3ccc(Cl)c-2c31 (single isomer, unassigned; (-)) [Example 88, (−)-4-chloro-3-ethyl-12,12-difluoro-7-{3-[(6-fluoronaphthalen-1-yl)oxy]propyl}-2-methyl-15-[2-(morpholin-4-yl)ethyl]-2,10,11,12,13,15-hexahydropyrazolo[4′,3′:9,10][1,6]oxazacycloundecino[8,7,6-hi]indole-8-carboxylic Acid]	560	1100	570		1350	760	3120					
CCc1c2c(nn1C)C(CCN1CCN(C)CC1)OCCCCn1c(C(=O)O)c(CCCOc3cccc4cc(F)ccc34)c3ccc(Cl)c-2c31 (single isomer, unassigned; stereoisomer 2) [Example 70, (+)-4-chloro-3-ethyl-7-{3-[(6-fluoronaphthalen-1-yl)oxy]propyl}-2-methyl-15-[2-(4-methylpiperazin-1-yl)ethyl]-2,10,11,12,13,15-hexahydropyrazolo[4′,3′:9,10][1,6]oxazacycloundecino[8,7,6-hi]indole-8-carboxylic Acid—N-ethylethanamine Salt (Stereoisomer 2)]				20000				13000	14000	12500	5000	16800
